# Reference: US20240366584A1, “COMBINATION TREATMENT OF CANCER WITH A PARP INHIBITOR AND A LIPOPHILIC STATIN” (TESARO, INC., priority 2021, published 2024)
# Like-named read-outs stand apart in the source and are kept apart here.
# Experiments:
# [1] = system: participants with advanced ovarian cancer; assay: post-hoc analysis of the PRIMA clinical trial (progression free survival); assay type: in vivo, human; settings: post hoc subgroups, Kaplan-Meier
# Excerpt: This example describes a post-hoc analysis of the PRIMA clinical trial.
# This was an exploratory post hoc analysis.
# For the subgroup analyses, we performed a two-sided log-rank test using randomization stratification factors (best response to last platinum; HRD status; and time from penultimate platinum to progression) to analyze PFS (progression free survival), which was summarized with the use of Kaplan-Meier methods. We estimated hazard ratios with two-sided 95% Confidence Intervals (CIs) using a stratified Cox proportional hazards (PH) model, with the stratification factors used in randomization.
# The Cox model for interaction testing also included stratification factors used in randomization as covariates.
# [2] = cited from earlier work
# [3] = pH 7.0, Shitara et al., Pharmacology & Therapeutics, 2006
# [4] = pH 7.4, Matre et al., Vascular Health and Risk Management, 2016
SMILES,mPFS [1],"log D ([2]; pH 7.4, Shitara et al., Pharmacology & Therapeutics, 2006)","log D [2, 3]","log D [2, 4]"
NC(=O)c1cccc2cn(-c3ccc([C@@H]4CCCNC4)cc3)nc12 [niraparib],13.7 months,–,–,–
CC(C)c1nc(N(C)S(C)(=O)=O)nc(-c2ccc(F)cc2)c1/C=C/[C@@H](O)C[C@@H](O)CC(=O)O [rosuvastatin],–,−0.25 to −0.50,–,–
CC(C)n1c(/C=C/C(O)CC(O)CC(=O)O)c(-c2ccc(F)cc2)c2ccccc21 (stereo not drawn) [fluvastatin],–,–,1.75,1.75
CC[C@H](C)C(=O)O[C@H]1C[C@H](O)C=C2C=C[C@H](C)[C@H](CC[C@@H](O)C[C@@H](O)CC(=O)O)[C@H]21 [pravastatin],–,–,−0.47,–
CC[C@H](C)C(=O)O[C@H]1C[C@@H](C)C=C2C=C[C@H](C)[C@H](CC[C@@H]3C[C@@H](O)CC(=O)O3)[C@H]21 [lovastatin],–,–,3.91,2.59
O=C(O)C[C@H](O)C[C@H](O)/C=C/c1c(C2CC2)nc2ccccc2c1-c1ccc(F)cc1 [pitavastatin],–,–,1.50,1.50
